Assays:
Assay type in all cases: functional, cell-based
Details in all cases: human
[1] = biological target: T1, Solute carrier organic anion transporter family member 1A1 (Rattus norvegicus, UniProt P46720); experiment: TP_TRANSPORTER: inhibition of BSP uptake (BSP: 1 uM, Aldosterone: 100 uM) in Oatp1-expressing HeLa cells
T1 sequence (P46720 whole entry): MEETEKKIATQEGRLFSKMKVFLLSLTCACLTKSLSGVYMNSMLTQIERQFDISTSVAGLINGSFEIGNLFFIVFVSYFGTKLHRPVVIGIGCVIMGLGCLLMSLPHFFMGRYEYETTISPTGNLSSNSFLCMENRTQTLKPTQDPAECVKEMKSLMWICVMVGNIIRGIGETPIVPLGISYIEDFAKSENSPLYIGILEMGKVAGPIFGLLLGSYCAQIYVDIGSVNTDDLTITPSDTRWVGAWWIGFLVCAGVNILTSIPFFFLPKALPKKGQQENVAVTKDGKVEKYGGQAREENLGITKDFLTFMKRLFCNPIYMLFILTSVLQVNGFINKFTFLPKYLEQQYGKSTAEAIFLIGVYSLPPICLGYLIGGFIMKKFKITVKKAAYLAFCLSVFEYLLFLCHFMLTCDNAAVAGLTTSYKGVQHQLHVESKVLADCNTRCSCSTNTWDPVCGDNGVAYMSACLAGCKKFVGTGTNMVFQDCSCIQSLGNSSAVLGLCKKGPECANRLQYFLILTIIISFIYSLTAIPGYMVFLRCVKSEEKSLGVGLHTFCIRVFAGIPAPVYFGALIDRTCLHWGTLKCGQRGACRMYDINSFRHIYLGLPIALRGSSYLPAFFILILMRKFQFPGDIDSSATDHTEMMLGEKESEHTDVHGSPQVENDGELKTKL

[2] = biological target: T1, Solute carrier organic anion transporter family member 1A1; experiment: TP_TRANSPORTER: uptake in Oatp1-expressing HeLa cells
[3] = biological target: T1, Solute carrier organic anion transporter family member 1A1; experiment: TP_TRANSPORTER: inhibition of BSP uptake (BSP: 1 uM, Corticosterone: 100 uM) in Oatp1-expressing HeLa cells
[4] = biological target: T1, Solute carrier organic anion transporter family member 1A1; experiment: TP_TRANSPORTER: inhibition of BSP uptake (BSP: 1 uM, Hydrocortisone: 100 uM) in Oatp1-expressing HeLa cells
[5] = biological target: T1, Solute carrier organic anion transporter family member 1A1; experiment: TP_TRANSPORTER: inhibition of BSP uptake (BSP: 1 uM, Spironolactone: 100 uM) in Oatp1-expressing HeLa cells

With `C[C@]12CCC(=O)C=C1CC[C@@H]1[C@@H]2[C@@H](O)C[C@]2(C=O)[C@@H](C(=O)CO)CC[C@@H]12` [ALDOSTERONE] the Activity [1] was “inhibitor [(at a rough estimate) 20 % of control]”.
In the case of `Nc1ccc(C(=O)NCC(=O)O)cc1` [AMINOHIPPURIC ACID], the Activity [2] is reported as “is not a substrate [-]”.
In the case of `C[C@]12C[C@H](O)[C@H]3[C@@H](CCC4=CC(=O)CC[C@@]43C)[C@@H]1CC[C@@H]2C(=O)CO` [CORTICOSTERONE], the Activity [3] is reported as “inhibitor [(at a rough estimate) 15 % of control]”.
`CCCCC[C@H](O)/C=C/[C@H]1[C@H](O)CC(=O)[C@@H]1C/C=C\CCCC(=O)O` [DINOPROSTONE] was tested, and the Activity [2] was “is not a substrate [-]”.
`C[C@]12CCC(=O)C=C1CC[C@@H]1[C@@H]2[C@@H](O)C[C@@]2(C)[C@H]1CC[C@]2(O)C(=O)CO` [HYDROCORTISONE] was tested, and the Activity [4] was “inhibitor [(at a rough estimate) 30 % of control]”.
With `CC(=O)S[C@@H]1CC2=CC(=O)CC[C@]2(C)[C@H]2CC[C@@]3(C)[C@@H](CC[C@@]34CCC(=O)O4)[C@H]12` [SPIRONOLACTONE] the Activity [5] was “inhibitor [(at a rough estimate) 10 % of control]”.
